Results reported in the supplement of paper PMC10307832.

Experiments:
Assay in all cases: relative viability (nuclei count vs DMSO), 5 days (fraction); higher = more cells survive
[1] = compound: NCC(=O)Nc1ccc(-n2nc(C(F)(F)F)cc2-c2ccc3c(ccc4ccccc43)c2)cc1 + COc1cccc2cc(-c3nc([C@H]4CC[C@H](C(=O)O)CC4)n4ncnc(N)c34)[nH]c12 [OSI-027] (partner 0.5 µM)
In short: (§1)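 Each reported value is a median over duplicate plates. It expresses relative viability: treated-well nuclei count divided by vehicle-well nuclei count. Lung cancer cell lines in 1536-well plates were dosed by pin tool a day after seeding, alone with one drug or with a fixed anchor-drug dose plus five library-drug doses (not always all listed) in √10 steps, and nuclei were counted after 5 days.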

[2] = compound: C1CSC2=C(C(=O)N1)SC3=C2C=C(C=C3)O [kb NB 142-70] + N=C(N)NC(=N)NCCc1ccccc1 [Phenformin] (partner 250 µM)
In short: as §1

[3] = compound: NCC(=O)Nc1ccc(-n2nc(C(F)(F)F)cc2-c2ccc3c(ccc4ccccc43)c2)cc1 + CC(=O)Nc1cccc(-n2c(=O)n(C3CC3)c(=O)c3c(Nc4ccc(I)cc4F)n(C)c(=O)c(C)c32)c1 [Trametinib] (partner 0.02 µM)
In short: as §1

[4] = compound: C1CSC2=C(C(=O)N1)SC3=C2C=C(C=C3)O [kb NB 142-70] + Nc1ncn([C@H]2C[C@H](O)[C@@H](CO)O2)c(=O)n1 [Decitabine] (partner 2 µM)
In short: as §1

| Cell Line | relative viability ([1]; first compound 0.02 µM) | relative viability ([1]; first compound 0.06325 µM) | relative viability ([1]; first compound 0.2 µM) | relative viability ([1]; first compound 0.6325 µM) | relative viability ([1]; first compound 2 µM) | relative viability ([2]; first compound 0.1 µM) | relative viability ([2]; first compound 1 µM) | relative viability ([2]; first compound 3.162 µM) | relative viability ([3]; first compound 0.02 µM) | relative viability ([3]; first compound 0.06325 µM) | relative viability ([3]; first compound 0.2 µM) | relative viability ([3]; first compound 0.6325 µM) | relative viability ([3]; first compound 2 µM) | relative viability ([4]; first compound 0.1 µM) | relative viability ([4]; first compound 1 µM) | relative viability ([4]; first compound 3.162 µM) |
| --- | --- | --- | --- | --- | --- | --- | --- | --- | --- | --- | --- | --- | --- | --- | --- | --- |
| HARA | 0.434 | 0.582 | 0.597 | 0.549 | 0.596 | 0.486 | 0.473 | 0.344 | 0.792 | 0.771 | 0.586 | 0.659 | 0.919 | 0.538 | 0.372 | 0.286 |
| NCI-H596 | 0.731 | 0.865 | 0.83 | 0.727 | 0.799 | 0.888 | 0.77 | 0.822 | 0.804 | 0.725 | 0.827 | 0.83 | 1.25 | 0.909 | 1.09 | 0.766 |
| NCI-H23 | 0.576 | 0.664 | 0.809 | 0.608 | 0.531 | 0.794 | 0.732 | 0.53 | 0.313 | 0.456 | 0.448 | 0.422 | 0.352 | 0.34 | 0.266 | 0.251 |
| LCLC-97TM1 | 0.656 | 0.567 | 0.503 | 0.625 | 0.606 | 0.407 | 0.462 | 0.416 | 0.21 | 0.215 | 0.213 | 0.198 | 0.189 | 0.268 | 0.205 | 0.135 |
| EPLC-272H | 0.307 | 0.246 | 0.28 | 0.311 | 0.274 | 0.38 | 0.267 | 0.189 | 0.269 | 0.297 | 0.305 | 0.299 | 0.303 | 0.404 | 0.303 | 0.303 |
| NCI-H2342 | 0.666 | 0.726 | 0.635 | 0.539 | 0.648 | 0.615 | 0.619 | 0.502 | 0.887 | 0.877 | 0.965 | 0.833 | 0.776 | 0.66 | 0.694 | 0.748 |
| NCI-H1915 | 0.463 | 0.652 | 0.639 | 0.617 | 0.63 | 0.365 | 0.359 | 0.258 | 0.284 | 0.314 | 0.31 | 0.296 | 0.322 | 0.263 | 0.246 | 0.23 |
| NCI-H2405 | 0.634 | 0.646 | 0.699 | 0.642 | 0.689 | 0.397 | 0.375 | 0.356 | 0.5 | 0.721 | 0.67 | 0.635 | 0.734 | 0.727 | 0.783 | 0.648 |
| NCI-H322M | 0.532 | 0.536 | 0.556 | 0.546 | 0.566 | 0.755 | 0.795 | 0.86 | 0.521 | 0.482 | 0.537 | 0.5 | 0.547 | 0.675 | 0.72 | 0.616 |
| NCI-H2170 | 0.67 | 0.678 | 0.711 | 0.824 | 0.735 | 0.429 | 0.405 | 0.395 | 0.89 | 0.91 | 0.989 | 0.884 | 0.912 | 0.501 | 0.496 | 0.369 |
| NCI-H522 |  | 0.785 | 0.697 | 0.699 | 0.713 | 0.633 | 0.561 | 0.522 | 0.596 | 0.684 | 0.781 | 0.92 | 0.813 | 0.61 | 0.698 | 0.581 |
| NCI-H1395 | 0.709 | 0.688 | 0.693 | 0.642 | 0.686 | 0.45 | 0.484 | 0.434 | 1.09 | 0.998 | 1.1 | 1.03 | 1.09 | 0.635 | 0.726 | 0.609 |
| NCI-H358 | 0.749 | 0.842 | 0.84 | 0.711 | 0.834 | 0.279 | 0.187 | 0.0752 | 0.127 | 0.127 | 0.133 | 0.138 | 0.15 | 0.226 | 0.148 | 0.0899 |
| NCI-H838 | 0.406 | 0.461 | 0.428 | 0.425 | 0.469 | 0.561 | 0.575 | 0.571 | 0.515 | 0.539 | 0.521 | 0.43 | 0.411 | 0.431 | 0.454 | 0.427 |
